Assay results as given in patent publication US5512553A, “7-(substituted)-8-(substituted)-9-(substituted amino)-6-demethyl-6-deoxytetracyclines” (American Cyanamid Company, priority 1995, dated 1996).
Where a name gives a salt, the structure may show the parent alone. Read-outs that look alike come from different tables or passages of the source.

Legend:
[1] = system: Staphylococcus aureus strain Smith (tetracycline sensitive); test: In vivo antibacterial evaluation, acute lethal infection in mice; conditions: 168 h, female mice CD-1, intraperitoneal challenge with S. aureus Smith, dosed subcutaneously or orally 30 minutes after infection, 7 day survival ratios
Description: In Vivo Antibacterial Evaluation (Table III)
The therapeutic effects of tetracyclines are determined against an acute lethal infection with Staphylococcus aureus strain Smith (tetracycline sensitive). Female, mice, strain CD-1 (Charles River Laboratories), 20±2 grams, are challenged by an intraperitoneal injection of sufficient bacteria (suspended in hog mucin) to kill non-treated controls within 24-48 hours. Antibacterial agents, contained in 0.5 ml of 0.2% aqueous agar, are administered subcutaneously or orally 30 minutes after infection. When an oral dosing schedule is used, animals are deprived of food for 5 hours before and 2 hours after infection. Five mice are treated at each dose level. The 7 day survival ratios from 3 separate tests are pooled for calculation of median effective dose (ED50).

[2] = system: S. aureus IVES 1983 (MP) (meth. resistant); test: In vitro antibacterial evaluation, MIC by agar dilution; assay type: cell-based; conditions: Staphylococcus aureus, 18 h
Description: (§1) Method for In Vitro Antibacterial Evaluation (Table I)
(§2) The minimum inhibitory concentration (MIC), the lowest concentration of the antibiotic which inhibits growth of the test organism, is determined by the agar dilution method using Muller-Hinton II agar (Baltimore Biological Laboratories). An inoculum density of 1-5×10^5 CFU/ml and an antibiotic concentration (32-≤0.015 μg/ml) is used. The plates are incubated for 18 hours at 35° C. in a forced air incubator. The test organisms comprise strains sensitive to tetracycline and genetically defined strains that are resistant to tetracycline, due to inability to bind bacterial ribosomes (tetM).

[3] = system: S. aureus UBMS 90-3 (sensitive); test: as above; assay type: cell-based; conditions: Staphylococcus aureus, 18 h
Description: as §1, §2

[4] = system: E. coli UBMS 88-2 (sensitive); test: as above; assay type: cell-based; conditions: Escherichia coli
Description: as §1, §2

[5] = system: S. aureus ATCC 29213 (sensitive); test: as above; assay type: cell-based; conditions: Staphylococcus aureus
Description: as §1, §2

S. haemol. AVAH 88-3 = test: as above; assay type: cell-based
Description: as §1, §2

[6] = system: S. aureus IVES 2943 (meth. resistant); test: as above; assay type: cell-based; conditions: Staphylococcus aureus, 18 h
Description: as §1, §2

E. coli ATCC 25922 = test: as above; assay type: cell-based; conditions: Escherichia coli
Description: as §1, §2

[7] = system: S. aureus SMITH (MP) (sensitive); test: as above; assay type: cell-based; conditions: Staphylococcus aureus
Description: as §1, §2

[8] = system: E. coli UBMS 89-2 (sensitive); test: as above; assay type: cell-based; conditions: Escherichia coli, Muller-Hinton II agar, 18 hours at 35° C.
Description: as §1, §2

S. faecal. ATCC 29212 = test: as above; assay type: cell-based
Description: as §1, §2

[9] = system: S. aureus UBMS 88-4 (sensitive); test: as above; assay type: cell-based; conditions: Staphylococcus aureus
Description: as §1, §2

Enteroc. spp. 12201 = test: as above; assay type: cell-based; conditions: 18 h
Description: as §1, §2

[10] = system: S. aureus UBMS 88-5 (tetM); test: microbe, parasite or virus in culture; assay type: cell-based; conditions: Staphylococcus aureus, 18 h
Description: as §1, §2

[11] = system: S. aureus UBMS 90-1 (tetM); test: microbe, parasite or virus in culture; assay type: cell-based; conditions: Staphylococcus aureus, 18 h
Description: as §1, §2

[12] = system: S. aureus UBMS 88-7 (tetK); test: microbe, parasite or virus in culture; assay type: cell-based; conditions: Staphylococcus aureus, 18 h
Description: as §1, §2

E. coli UBMS 88-1 (tetB) = test: microbe, parasite or virus in culture; assay type: cell-based; conditions: Escherichia coli, 18 h
Description: as §1, §2

E. coli UBMS 89-1 (tetM) = test: microbe, parasite or virus in culture; assay type: cell-based; conditions: Escherichia coli, 18 h
Description: as §1, §2

[13] = system: S. aureus UBMS 90-2 (tetM); test: microbe, parasite or virus in culture; assay type: cell-based; conditions: Staphylococcus aureus, 18 h
Description: as §1, §2

[14] = system: S30 extract from E. coli strain MRE 600 (tetracycline sensitive); test: E. coli in vitro cell free protein translation system, Wild Type S30; assay type: biochemical; conditions: for % Inhibition Wild Type S30: 35S-methionine incorporation, 30 minutes at 37° C.
From the text: (§3) E. coli in Vitro protein Translation System (Table II)
(§4) An in vitro, cell free, protein translation system using extracts from E. coli strain MRE 600 (tetracycline sensitive) and a derivative of MRE 600 containing the tetM determinant has been developed based on literature methods J. M. Pratt, Coupled Transcription-translation in Prokaryotic Cell-free Systems, Transcription and Translation, a Practical Approach, (B. D. Hames and S. J. Higgins, eds) p. 179-209, IRL Press, Oxford-Washington, 1984!.
(§5) Using the system described above, the tetracycline compounds of the present invention are tested for their ability to inhibit protein synthesis in vitro. Briefly, each 10 μl reaction contains S30 extract (a whole extract) made from either tetracycline sensitive cells or an isogenic tetracycline resistant (tetM) strain, low molecular weight components necessary for transcription and translation (i.e., ATP and GTP), a mix of 19 amino acids (no methionine), ^35 S labeled methionine, DNA template (either pBR322 or pUC119), and either DMSO (control) or the novel tetracycline compound to be tested ("novel TC") dissolved in DMSO.
(§6) The reactions are incubated for 30 minutes at 37° C. Timing is initiated with the addition of the S30 extract, the last component to be added. After 30 minutes, 2.5 μl of the reaction is removed and mixed with 0.5 ml of 1N NaOH to destroy RNA and tRNA. Two to three ml of 25% trichloroacetic acid is added and the mixture incubated at room temperature for 15 minutes. The trichloroacetic acid precipitated material is collected on Whatman GF/C filters and washed with a solution of 10% trichloroacetic acid. The filters are dried and the retained radioactivity, representing incorporation of ^35 S-methionine into polypeptides, is counted using standard liquid scintillation methods.
(§7) The percent inhibition (P.I.) of protein synthesis is determined to be: [formula]

[15] = system: S30 extract from derivative of E. coli MRE 600 containing the tetM determinant; test: E. coli in vitro cell free protein translation system, TetM S30; assay type: biochemical; conditions: for % Inhibition TetM S30: 35S-methionine incorporation, 30 minutes at 37° C.
From the text: as §3, §4, §5, §6, §7

[16] = agar dilution, Muller-Hinton II agar, 18 hours at 35° C., E. coli UBMS 88-2 (sensitive), read-out: MIC
[17] = ATCC29213, agar dilution, Muller-Hinton II agar, 18 hours at 35° C., S. aureus ATCC 29213 (sensitive), read-out: MIC

Structure (SMILES)	ED50 [1]	MIC [2]	MIC [3]	MIC [4, 16]	MIC [5, 17]	MIC [6]	MIC [8]	MIC (S. faecal. ATCC 29212; 18 h)	MIC (Enteroc. spp. 12201)	MIC [10]	MIC [11]	MIC [12]	MIC (E. coli UBMS 88-1 (tetB))	MIC (E. coli UBMS 89-1 (tetM))	MIC [13]	MIC ([4]; 18 h)	MIC (S. haemol. AVAH 88-3; 18 h)	MIC (E. coli ATCC 25922; ATCC25922, 18 h)	MIC ([7]; 18 h)	MIC ([9]; 18 h)	further results
CN(C)[C@@H]1C(O)=C(C(N)=O)C(=O)[C@@]2(O)C(O)=C3C(=O)c4c(cc(Cl)c(NC=O)c4O)CC3CC12 (stereo partly shown) [A HCL]	4 to 8 mg/kg	–	–	–	–	–	–	–	–	–	–	–	–	–	–	–	–	–	–	–	–
CN(C)[C@@H]1C(O)=C(C(N)=O)C(=O)[C@@]2(O)C(O)=C3C(=O)c4c(O)cc(Cl)c(N)c4CC3CC12 (stereo partly shown) [Compound C, 7-Amino-8-chloro-4-(dimethylamino)-1,4-4a,5,5a,6,11,12a-octahydro-3,10,12,12a-tetrahydroxy-1,11-dioxo-2-naphthacenecarboxamide hydrochloride]	–	> 32 µg/mL	0.12 µg/mL	2 µg/mL	0.12 µg/mL	> 32 µg/mL	4 µg/mL	8 µg/mL	32 µg/mL	32 µg/mL	32 µg/mL	> 32 µg/mL	> 32 µg/mL	32 µg/mL	8 µg/mL	–	–	–	–	–	MIC (S. haemol. AVAH 88-3; agar dilution, Muller-Hinton II agar, 18 hours at 35° C., S. haemol. AVAH 88-3, read-out: MIC): 1 µg/mL; MIC (E. coli ATCC 25922; ATCC25922, agar dilution, Muller-Hinton II agar, 18 hours at 35° C., E. coli ATCC 25922, read-out: MIC): 2 µg/mL; MIC ([7]; agar dilution, Muller-Hinton II agar, 18 hours at 35° C., S. aureus SMITH (MP) (sensitive), read-out: MIC): 0.25 µg/mL; MIC ([9]; agar dilution, Muller-Hinton II agar, 18 hours at 35° C., S. aureus UBMS 88-4 (sensitive), read-out: MIC): 0.5 µg/mL
CN(C)c1c(Cl)c(NC=O)c(O)c2c1CC1CC3C(N(C)C)C(O)=C(C(N)=O)C(=O)C3(O)C(O)=C1C2=O.O=S(=O)(O)O (stereo not shown) [F, 8-Chloro-4,7-bis(dimethylamino)-9-(formylamino)-1,4,4a,5,5a,6,11,12a-octahydro-3,10,12,12a-tetrahydroxy-1,11-dioxo-2-naphthacenecarboxamide sulfate]	–	8 µg/mL	0.06 µg/mL	–	–	8 µg/mL	1 µg/mL	0.06 µg/mL	0.5 µg/mL	0.25 µg/mL	0.5 µg/mL	4 µg/mL	> 32 µg/mL	0.5 µg/mL	0.12 µg/mL	1 µg/mL	0.12 µg/mL	0.25 µg/mL	0.06 µg/mL	0.12 µg/mL	MIC ([5]; ATCC29213, 18 h): 0.06 µg/mL
CN(C)c1c(Cl)c(N)c(O)c2c1CC1CC3[C@H](N(C)C)C(O)=C(C(N)=O)C(=O)[C@@]3(O)C(O)=C1C2=O (stereo partly shown) [H, 9-Amino-8-chloro-4,7-(dimethylamino)-1,4-4a,5,5a,6,11,12a-octahydro-3,10,12,12a-tetrahydroxy-1,11-dioxo-2-naphthacenecarboxamide sulfate]	4 to 8 mg/kg	4 µg/mL	0.12 µg/mL	8 µg/mL	< 0.015 µg/mL	1 µg/mL	16 µg/mL	–	4 µg/mL	1 µg/mL	2 µg/mL	0.25 µg/mL	> 32 µg/mL	–	0.5 µg/mL	–	0.12 µg/mL	4 µg/mL	0.06 µg/mL	0.12 µg/mL	% Inhibition Wild Type S30 ([14]; Conc. 0.1 mg/ml): 52%; % Inhibition Wild Type S30 ([14]; Conc. 0.3 mg/ml): 62%; % Inhibition Wild Type S30 ([14]; Conc. 1.0 mg/ml): 57%; MIC (S. faecal. ATCC 29212; agar dilution, Muller-Hinton II agar, 18 hours at 35° C., S. faecal. ATCC 29212, read-out: MIC): 0.5 µg/mL; % Inhibition TetM S30 ([15]; Conc. 0.1 mg/ml): 19%; % Inhibition TetM S30 ([15]; Conc. 0.3 mg/ml): 21%; % Inhibition TetM S30 ([15]; Conc. 1.0 mg/ml): 29%
CN(C)[C@@H]1C(=O)C(C(N)=O)=C(O)[C@@]2(O)C(=O)C3=C(O)c4c(O)cccc4[C@@](C)(O)[C@H]3C[C@@H]12 [K, Tetracycline hydrochloride, reference compound]	–	> 32 µg/mL	0.06 µg/mL	–	–	> 32 µg/mL	1 µg/mL	16 µg/mL	32 µg/mL	> 32 µg/mL	> 32 µg/mL	> 32 µg/mL	> 32 µg/mL	16 µg/mL	32 µg/mL	0.25 µg/mL	1 µg/mL	0.5 µg/mL	0.06 µg/mL	0.12 µg/mL	inhibition of protein synthesis, in words ([14]; cell-free extracts from tetracycline susceptible strain MRE600): inhibited; MIC ([5]; ATCC29213, 18 h): ≤ 0.015 µg/mL; inhibition of protein synthesis, in words ([15]; cell-free extracts from strain MRE600 (tetM)): resistant
CCN(CC)c1c(Cl)c(N)c(O)c2c1CC1CC3[C@H](N(C)C)C(O)=C(C(N)=O)C(=O)[C@@]3(O)C(O)=C1C2=O (stereo partly shown) [M]	> 16 mg/kg	–	–	–	–	–	–	–	–	–	–	–	–	–	–	–	–	–	–	–	–
